Here are results for five molecules from patent US20250090699A1, “FAP TARGETING CYCLIC PEPTIDES AND CONJUGATES THEREOF” (Novartis AG, priority 2023, published 2025).

Test [1] has as its target T1, human FAP (Homo sapiens, UniProt Q12884).
T1 construct: the biotinylated His, Avi tag, human FAP (26-760, FAP-H82Q6); His; Avi tag (biotinylated); purchased AcroBiosystems FAP-H82Q6
T1 sequence (Q12884 26-760): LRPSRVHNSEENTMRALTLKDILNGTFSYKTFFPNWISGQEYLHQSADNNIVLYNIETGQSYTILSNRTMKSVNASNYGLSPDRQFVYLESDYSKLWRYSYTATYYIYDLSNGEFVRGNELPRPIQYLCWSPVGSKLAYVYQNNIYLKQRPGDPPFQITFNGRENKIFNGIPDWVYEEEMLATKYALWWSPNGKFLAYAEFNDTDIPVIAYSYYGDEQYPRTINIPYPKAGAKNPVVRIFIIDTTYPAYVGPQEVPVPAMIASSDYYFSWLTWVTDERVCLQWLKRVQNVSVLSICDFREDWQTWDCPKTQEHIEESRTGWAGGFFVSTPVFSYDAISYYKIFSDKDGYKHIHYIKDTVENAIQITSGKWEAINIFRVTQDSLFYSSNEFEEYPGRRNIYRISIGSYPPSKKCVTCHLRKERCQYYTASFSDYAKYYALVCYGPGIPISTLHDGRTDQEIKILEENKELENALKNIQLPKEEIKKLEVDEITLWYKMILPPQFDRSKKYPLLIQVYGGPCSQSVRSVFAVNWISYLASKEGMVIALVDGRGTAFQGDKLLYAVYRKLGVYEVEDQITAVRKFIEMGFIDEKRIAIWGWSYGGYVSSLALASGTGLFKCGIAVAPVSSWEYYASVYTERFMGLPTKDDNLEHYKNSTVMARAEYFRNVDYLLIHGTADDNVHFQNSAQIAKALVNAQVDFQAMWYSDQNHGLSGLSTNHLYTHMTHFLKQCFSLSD
Nature of the test: Enzymatic FAP competition assay (Z-Gly-Pro-AMC fluorescence), human FAP. The class given is biochemical. As to conditions: read-out: h. FAP, Enz., IC50. The procedure:
(§1) Peptide potencies (IC50) to inhibit the FAP enzymatic activity were determined using a fluorescence-based assay towards the biotinylated His, Avi tag, human FAP (26-760, FAP-H82Q6) and the biotinylated His, Avi tag, mouse FAP (26-761, FAP-M82Q5). Standard assay conditions consisted of 20 μL total volume in white 384-well plates (Greiner, Ref. 784075), in 50 mM phosphate buffer pH 7.5 containing 150 mM NaCl, 0.05% Tween20 and 1% final DMSO. Tested peptides at 14 different concentrations up to 1 μM were added to 0.01 nM human or mouse FAP. The peptides were incubated for 24 hours together with the protein before adding the substrate 50 μM Z-Gly-Pro-AMC (I-1145 from Bachem). Samples were then incubated at 22-24° C. for 4 h before reading the fluorescence at excitation wavelength of 380 nm and emission wavelength of 460 nm using the Tecan Infinite® M1000 PRO. The high control (100% activity) was not containing any peptide, and an internal potent peptide was added at 10 μM concentration for the low control (100% inhibition). IC50 values were calculated by curve fitting using an in-house developed software (Novartis Helios software application) using the method described by Fomenko et al., 2006 (regression algorithms for nonlinear dose-response curve fitting). Following normalization of activity values for the wells to % inhibition (% inhibition=[(high control-sample)/(high control-low control)]x 100). IC50 fitting was carried out from the duplicated points.

Test [2] concerns the target T2, mouse FAP (Mus musculus, UniProt P97321).
T2 construct: biotinylated His, Avi tag, mouse FAP (26-761, FAP-M82Q5); His; Avi tag (biotinylated); purchased AcroBiosystems FAP-M82Q5
T2 sequence (P97321 26-761): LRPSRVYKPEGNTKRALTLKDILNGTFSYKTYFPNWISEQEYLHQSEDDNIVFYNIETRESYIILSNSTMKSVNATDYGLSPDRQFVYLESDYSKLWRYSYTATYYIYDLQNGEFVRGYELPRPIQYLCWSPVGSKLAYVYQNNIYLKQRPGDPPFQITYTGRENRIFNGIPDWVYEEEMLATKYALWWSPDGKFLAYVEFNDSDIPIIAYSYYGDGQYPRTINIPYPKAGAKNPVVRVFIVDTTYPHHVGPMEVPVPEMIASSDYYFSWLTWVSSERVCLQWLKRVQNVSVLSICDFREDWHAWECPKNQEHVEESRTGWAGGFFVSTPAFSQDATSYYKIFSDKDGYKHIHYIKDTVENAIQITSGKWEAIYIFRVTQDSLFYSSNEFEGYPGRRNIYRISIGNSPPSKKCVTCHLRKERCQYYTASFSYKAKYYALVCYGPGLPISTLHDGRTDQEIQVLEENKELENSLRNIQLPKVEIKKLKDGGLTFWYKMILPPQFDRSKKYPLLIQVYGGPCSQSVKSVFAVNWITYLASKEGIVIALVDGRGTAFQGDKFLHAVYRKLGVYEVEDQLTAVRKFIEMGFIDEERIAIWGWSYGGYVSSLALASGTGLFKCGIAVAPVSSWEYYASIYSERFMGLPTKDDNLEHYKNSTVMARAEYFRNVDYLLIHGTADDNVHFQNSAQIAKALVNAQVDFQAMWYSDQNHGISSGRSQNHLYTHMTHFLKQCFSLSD
Put plainly: Surface plasmon resonance (SPR) for peptide affinity, mouse FAP. The class given is binding. The procedure:
Peptide affinities (KD) were determined by SPR using a Biacore™ 8K device (Cytiva) towards the following proteins: biotinylated His, Avi tag, human FAP (26-760, FAP-H82Q6), biotinylated His, Avi tag, mouse FAP (26-761, FAP-M82Q5), His tag, human DPP4 (34-766, DP4-H82E3), all purchased from AcroBiosystems and His tag, mouse DPP4 (29-760, 954-SE) from R&D Systems. The FAP proteins and their homologous were diluted to a concentration of 2 μg/mL into acetate buffer pH 5.5, then immobilized onto a CM5 sensorchip (Cytiva, BR-1005-30) to reach a response around 2000 R U. The running buffer HBS-EP+pH 7.6 (20× from Teknova CAT. No: H8022) contained 10 mM HEPES pH 7.6, 150 mM NaCl, 3 mM EDTA, 0.05% Tween20 and 2% DMSO. Experiments were carried out at 25° C. using a flow rate of 30 μL/min. Compounds were tested in single cycle kinetic mode at 8 different concentrations. Curve fitting was performed using the Biacore™ 8K evaluation software. The sensorgrams were fitted by applying a 1:1 binding model to calculate kinetic rate constants and equilibrium dissociation constants (KD).
For this assay, the setup had the same conditions (flow rate, running buffer, peptide dilution) as described above for the CM5 method. The oligo CAP reagent obtained in the CAPture Kit (Ref. 28920234) was 1/5 diluted into running buffer and used with a contact time of 300 s at a flow rate of 2 μL/min. The human and mouse FAP constructs described above were used (from AcroBiosystems or produced in house). The FAP proteins were diluted to a concentration of 2 μg/mL into acetate pH 5.5, 0.05% Tween20 and used with a contact time of 600 s at a flow rate of 10 μL/min. The peptides were tested with an association time of 280 s followed by a dissociation time of 3000 s at a flow rate of 30 μL/min. The regeneration was done using the regeneration solution (8 M guanidine-HCl, 1 M NaOH) as obtained with a contact time of 270 s at a flow rate of 10 μL/min. […] The compounds marked with an asterisk were tested against human and mouse DDP4.
(Surface plasmon resonance follows binding to a sensor surface in real time, without labels.)

The target of test [3] is T2, mouse FAP. Nature of the test: Enzymatic FAP competition assay (Z-Gly-Pro-AMC fluorescence), mouse FAP. The test is classed as biochemical. As to conditions: read-out: m. FAP, Enz., IC50. The method, then: as §1

Where a name gives a salt, the structure may show the parent alone. Starred links: 1 amine or outer side, 2 acyl side, 3 side chain; linkers in the order of their positions; H or OH if unused. Non-standard residues stand in square brackets, D forms with d. Residues, ends and D or L forms follow the SMILES beside them. Groups on a side chain read outwards from the residue. *: point of attachment. DOTA = O=C(O)CN1CCN(CC(=O)O)CCN(CC(=O)*)CCN(CC(=O)O)CC1; Phe(4-CH2NH2) = NCc1ccc(C[C@H](N)C(=O)O)cc1; Piperazinyl(4-CH2COOH) = O=C(O)CN1CCN(*)CC1; AEF = NCCOc1ccc(C[C@H](N)C(=O)O)cc1; Nicotinoyl(6-F) = O=C(c1ccc(F)nc1)*; NMeF = CN[C@@H](Cc1ccccc1)C(=O)O; Aoc(2) = CCCCCC[C@H](N)C(=O)O; Ahp(2) = CCCCC[C@H](N)C(=O)O; dPip = O=C(O)[C@H]1CCCCN1; AEEA = NCCOCCOCC(=O)O; CO = O=C([*:1])[*:2]

Usually IC50 stands for the midpoint of a concentration-inhibition curve. For orientation: Kd means the free concentration of one partner at which half of the binding sites on the other are occupied at equilibrium, for simple one-to-one binding. Consider “hSer-Gly-NMePhe-F(4amPEG2NHDOTA-Lu)-hS(Pr)-Trp-Gly-K(COpipzaa)-Asp-D-Pro [Example C4]”, for which the results for the IC50 in test [1] and in test [3] were 0.011 nM and 0.032 nM, respectively. In test [2], this molecule showed a Kd below 0.039 nM.
The like results for `CCCCC[C@@H]1NC(=O)[C@H](Cc2ccc(CNC(=O)CN3CCN(CC(=O)O)CCN(CC(=O)O)CCN(CC(=O)O)CC3)cc2)NC(=O)[C@H](Cc2ccccc2)N(C)C(=O)CNC(=O)CNC(=O)[C@H]2CCCN2C(=O)[C@H](CC(=O)O)NC(=O)[C@H](Cc2ccc(O)cc2)NC(=O)CNC(=O)[C@H](Cc2c[nH]c3ccccc23)NC1=O` [Example B17, Gly-Gly-NMePhe-F(4amDOTA)-Ahp-Trp-Gly-Tyr-Asp-D-Pro, TFA salt] (cyclo([Ahp(2)]WGYD[dP]GG[NMeF][Phe(4-CH2NH2)](DOTA))) were, in that order, 0.033 nM, 0.158 nM and 0.133 nM.
Consider `CCCCC[C@@H]1NC(=O)[C@H](Cc2ccc(O)cc2)NC(=O)[C@H](Cc2ccccc2)N(C)C(=O)CNC(=O)CNC(=O)[C@H]2CCCCN2C(=O)[C@H](CC(=O)O)NC(=O)[C@H](Cc2ccc(O)cc2)NC(=O)CNC(=O)[C@H](Cc2c[nH]c3ccccc23)NC1=O` [Example A66, Gly-Gly-NMePhe-Tyr-Ahp-Trp-Gly-Tyr-Asp-Pi(2R-COOH)] (cyclo([Ahp(2)]WGYD[dPip]GG[NMeF]Y)), for which the IC50 in test [1] is 0.27 nM; in test [3] it was 1.2 nM. This molecule came in with a Kd in test [2] of 0.46 nM.
Regarding `CCCCC[C@@H]1NC(=O)[C@H](Cc2ccc(OCCNC(=O)CN3CCN(CC(=O)O)CCN(CC(=O)O)CCN(CC(=O)O)CC3)cc2)NC(=O)[C@H](Cc2ccccc2)N(C)C(=O)CNC(=O)[C@H](CCCCNC(=O)N2CCN(CC(=O)O)CC2)NC(=O)[C@H]2CCCN2C(=O)[C@H](CC(=O)O)NC(=O)[C@H](Cc2ccc(O)cc2)NC(=O)CNC(=O)[C@H](Cc2c[nH]c3ccccc23)NC1=O` [Example B25, K(COpipzaa)-Gly-NMePhe-F(4OEtNHDOTA)-Ahp-Trp-Gly-Tyr-Asp-D-Pro] (cyclo([AEF](DOTA)[Ahp(2)]WGYD[dP]K([CO-Piperazinyl(4-CH2COOH)])G[NMeF])), the IC50 in test [1] is 0.1 nM; in test [3] it was 0.38 nM. The Kd in test [2] was 0.44 nM.
In the same order, the values of `CCCCCC[C@@H]1NC(=O)[C@H](Cc2ccc(CNC(=O)COCCOCCNC(=O)c3ccc(F)nc3)cc2)NC(=O)[C@H](Cc2ccccc2)N(C)C(=O)CNC(=O)CNC(=O)[C@H]2CCCN2C(=O)[C@H](CC(=O)O)NC(=O)[C@H](CCCCNC(=O)N2CCN(CC(=O)O)CC2)NC(=O)CNC(=O)[C@H](Cc2c[nH]c3ccccc23)NC1=O` [Example C55, Gly-Gly-NMePhe-F(4amPEG2NHCOPy3(4F))-Aoc-Trp-Gly-K(COpipzaa)-Asp-D-Pro] (cyclo([Aoc(2)]WGK([CO-Piperazinyl(4-CH2COOH)])D[dP]GG[NMeF][Phe(4-CH2NH2)]([AEEA-Nicotinoyl(6-F)]))) are 0.006 nM, 0.022 nM and below 0.014 nM.
